In the supplement of paper PMC11061612:

Experiments:
Experiment in all cases: Bliss excess, mean over the matrix (fraction); higher = more synergy
HCC70 (Breast Carcinoma) = test system: HCC70 (Breast Carcinoma)
Method in brief: (§1)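 After 24 hours at 37°C and 5% CO2 in 1536-well plates, cells in DMEM/F12 or RPMI plus 10% FBS received two-drug dose matrices for 72 hours. Viability came from CellTiter-Glo 2.0 luminescence and was scaled as inhibition, anchored at 0 by vehicle wells and at 1 by blank wells. Combination Emax is taken as the second-highest inhibition in the matrix, and Bliss excess as the observed combination effect less EA + EB − EA·EB, with EA and EB the single-agent effects.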

769-P (Kidney Carcinoma) = test system: 769-P (Kidney Carcinoma)
Method in brief: as §1

PEO1 (Ovarian Carcinoma) = test system: PEO1 (Ovarian Carcinoma)
Method in brief: as §1

[1] = test system: JHU-022 (Oral Cavity Carcinoma)
Method in brief: as §1

[2] = test system: KYSE-220 (Esophageal Squamous Cell Carcinoma)
Method in brief: as §1

EB2 (Burkitt's Lymphoma) = test system: EB2 (Burkitt's Lymphoma)
Method in brief: as §1

[3] = test system: NCI-H1703 (Squamous Cell Lung Carcinoma)
Method in brief: as §1

IM-9 (Non-Cancerous) = test system: IM-9 (Non-Cancerous)
Method in brief: as §1

[4] = test system: LU-165 (Small Cell Lung Carcinoma)
Method in brief: as §1

[5] = test system: NCI-H441 (Lung Adenocarcinoma)
Method in brief: as §1

[6] = test system: MHH-ES-1 (Ewing's Sarcoma)
Method in brief: as §1

WM1552C (Melanoma) = test system: WM1552C (Melanoma)
Method in brief: as §1

[7] = test system: UACC-812 (Breast Carcinoma)
Method in brief: as §1

[8] = test system: SK-HEP-1 (Hepatocellular Carcinoma)
Method in brief: as §1

[9] = test system: CGTH-W-1 (Thyroid Gland Carcinoma)
Method in brief: as §1

[10] = test system: MDA-MB-436 (Breast Carcinoma)
Method in brief: as §1

[11] = test system: HCC1395 (Breast Carcinoma)
Method in brief: as §1

[12] = test system: A2780 (Ovarian Carcinoma)
Method in brief: as §1

[13] = test system: SW620 (Colorectal Carcinoma)
Method in brief: as §1

[14] = test system: JHH-2 (Hepatocellular Carcinoma)
Method in brief: as §1

Row | Structure (SMILES) | Bliss excess (HCC70 (Breast Carcinoma)) | Bliss excess (769-P (Kidney Carcinoma)) | Bliss excess (PEO1 (Ovarian Carcinoma)) | Bliss excess [1] | Bliss excess [2] | Bliss excess (EB2 (Burkitt's Lymphoma)) | Bliss excess [3] | Bliss excess (IM-9 (Non-Cancerous)) | Bliss excess [4] | Bliss excess [5] | Bliss excess [6] | Bliss excess (WM1552C (Melanoma)) | Bliss excess [7] | Bliss excess [8] | Bliss excess [9] | Bliss excess [10] | Bliss excess [11] | Bliss excess [12] | Bliss excess [13] | Bliss excess [14]
1 | CN(CCO)CC[C@H](CSc1ccccc1)Nc1ccc(S(=O)(=O)NC(=O)c2ccc(N3CCC([C@@H](O)c4ccccc4-c4ccc(Cl)cc4)CC3)cc2)cc1S(=O)(=O)C(F)(F)F [AZD4320] + C[C@@H](Nc1cc(F)cc(F)c1)c1cc(C(=O)N(C)C)cc2c(=O)cc(N3CCOCC3)oc12 [AZD8186] (first compound max 1 µM, 7x7, partner max 3 µM) | 0.0803 | 0.0227 | -0.0468 | -0.0104 | -0.0227 | -0.0196 | 0.0398 | 0.0079 | -0.0236 | -0.0528 | 0.01 | 0.0104 | 0.0063 | 0.0099 | 0.0304 | 0.0429 | 0.0463 | 0.0202 | -0.0141 | -0.0485
2 | CN(CCO)CC[C@H](CSc1ccccc1)Nc1ccc(S(=O)(=O)NC(=O)c2ccc(N3CCC([C@@H](O)c4ccccc4-c4ccc(Cl)cc4)CC3)cc2)cc1S(=O)(=O)C(F)(F)F [AZD4320] + Nc1ccn([C@@H]2O[C@H](CO)[C@@H](O)C2(F)F)c(=O)n1 [Gemcitabine] (first compound max 1 µM, 7x7, partner max 0.3 µM) | 0.103 | -0.0672 | -0.0368 | 0.0202 | 0.0369 | -0.0017 | -0.0482 | 0.043 | 0.0836 | 0.0333 | 0.0486 | 0.0167 | -0.0326 | -0.108 | 0.0579 | 0.0024 | -0.0457 | -0.0321 | -0.009 | -0.0302
3 | C[C@@H](c1ccc2nccn2c1)n1nnc2ncc(-c3cnn(C)c3)nc21 [Savolitinib] + CC1(C)CCC(CN2CCN(c3ccc(C(=O)NS(=O)(=O)c4ccc(NCC5CCOCC5)c([N+](=O)[O-])c4)c(Oc4cnc5[nH]ccc5c4)c3)CC2)=C(c2ccc(Cl)cc2)C1 [Venetoclax] (first compound max 1 µM, 7x7, partner max 1 µM) | -0.0361 | -0.0419 | -0.0441 | -0.0621 | -0.0573 | -0.0391 | -0.015 | 0.0452 | -0.0126 | -0.029 | -0.031 | -0.0623 | -0.043 | -0.0267 | -0.0378 | -0.0228 | -0.0095 | -0.0843 | -0.0727 | -0.0705
4 | N#Cc1cnc(Nc2cc(NC[C@H]3CNCCO3)c(C(F)(F)F)cn2)cn1 [SRA737] + O=c1[nH]cc(F)c(=O)[nH]1 [5-Fluorouracil] (first compound max 10 µM, 7x7, partner max 20 µM) | 0.0824 | -0.112 | 0.0228 | -0.0078 | -0.0134 | -0.0038 | -0.0304 | 0.0007 | -0.082 | -0.0258 | 0.0337 | 0.0347 | 0.023 | -0.122 | 0.0467 | 0.0202 | -0.0584 | -0.0066 | -0.0353 | 0.0695
5 | CN(CCO)CC[C@H](CSc1ccccc1)Nc1ccc(S(=O)(=O)NC(=O)c2ccc(N3CCC([C@@H](O)c4ccccc4-c4ccc(Cl)cc4)CC3)cc2)cc1S(=O)(=O)C(F)(F)F [AZD4320] + Cc1cc2ncnn2cc1Nc1ncc2c(n1)n(C1CCOCC1)c(=O)n2C [AZD7648] (first compound max 1 µM, 7x7, partner max 10 µM) | -0.01 | -0.0572 | -0.0389 | -0.0477 | -0.0165 | 0.007 | -0.0096 | 0.0473 | 0.0018 | -0.043 | -0.0097 | -0.0505 | -0.0342 | -0.051 | -0.0436 | -0.0488 | -0.037 | -0.0469 | -0.0309 | -0.02
6 | COc1cc2ncnc(Nc3ccc(F)c(Cl)c3)c2cc1OCCCN1CCOCC1 [Gefitinib] + CC(C)n1c(=O)n(C)c2cnc3cc(F)c(-c4ccc(OCCCN5CCCCC5)nc4)cc3c21 [AZD1390] (first compound max 10 µM, 7x7, partner max 0.3 µM) | -0.0536 | -0.0722 | -0.0346 | -0.053 | -0.0059 | -0.0774 | 0.0012 | -0.0511 | -0.0477 | -0.047 | -0.0611 | -0.0589 | -0.0549 | 0.0092 | -0.0417 | -0.0402 | -0.0265 | -0.0704 | -0.0762 | -0.0446
7 | N#Cc1cnc(Nc2cc(NC[C@H]3CNCCO3)c(C(F)(F)F)cn2)cn1 [SRA737] + C=CCn1c(=O)c2cnc(Nc3ccc(N4CCN(C)CC4)cc3)nc2n1-c1cccc(C(C)(C)O)n1 [AZD1775] (first compound max 10 µM, partner max 1 µM) | 0.0276 | 0.0166 | -0.0117 | -0.0533 | 0.0983 | 0.0335 | 0.0391 | 0.156 | 0.0319 | -0.0403 | 0.0231 | -0.0052 | 0.0343 | -0.0452 | -0.0074 | -0.0132 | 0.0559 | 0.097 | -0.0272 | -0.008
